Patent publication US6391924B1, “Taurine derivatives useable in the treatment of ophthalmic disorders” (priority 1997, dated 2002)

Experiments:
[1] = solubility in water; type: physicochemical
Protocol: The all-trans isomer of retinyliden tauret (i.e., all-trans-3,7-dimethyl-9-(2,6,6-trimehyl-1-cyclohexen-1-yl)-2,4,6,8-nonatetraen-1-imido-(N-sulfonic acid) prepared in this example has the following characterization: a) Absorbency Max […]., b) Extinction Coefficient at […] is 40200, c) upon protonation the absorbency Max shifts to 444 um, d) the Extinction Coefficient at 444 um is 40050 e) Melting Point is 115 C., -116° C. and soluability in water is 200 mg/ml.

[2] = tested on: frog retinas; conditions: in vitro; cited from earlier work

soluability in water [1] | Structure (SMILES) | photoprotective effects [2]
200 mg/mL | CC1=C(/C=C/C(C)=C/C=C/C(C)=C/C=NCCS(=O)(=O)O)C(C)(C)CCC1 (single isomer, unassigned) [all-trans isomer of retinyliden tauret, all-trans-3,7-dimethyl-9-(2,6,6-trimehyl-1-cyclohexen-1-yl)-2,4,6,8-nonatetraen-1-imido-(N-ethanesulfonic acid)] | 
 | CC(C=CC1=C(C)CCCC1(C)C)=CC=CC(C)=CC=NCCS(=O)(=O)O [retinyliden tauret, 3,7-dimethyl-9-(2,6,6-trimehyl-1-cyclohexen-1-yl)-2,4,6,8-nonatetraen-1-imido-(N-ethanesulfonic acid)] | some photoprotective effects
